The test deals with SMYD2 (Homo sapiens, UniProt Q9NRG4). Put plainly: Scintillation Proximity Assay (SPA) for detection of SMYD2 enzymatic inhibition. The class given is biochemical. Also on record: The SMYD2 full length enzyme was produced in-house by expression (with an N-terminal 6× His tag) in E. coli; 6xHis (N); made in house; host or cells: E. coli. As to conditions: SMYD2 full length enzyme, p53 Peptide substrate 1.0 μM, 3H-SAM 60 nM; read-out: IC50 [mol/l] (SPA Assay). From the text:
1.1 Scintillation Proximity Assay (SPA) for Detection of SMYD2 Enzymatic Inhibition
SMYD2 inhibitory activities of the compounds described in the present invention were quantified using a scintillation proximity assay (SPA) which measures methylation by the enzyme of the synthetic, biotinylated peptide Btn-Ahx-[…]—Amid×TFA (Biosyntan) derived from p53 and referred to from here on as “p53 Peptide”. The SMYD2 full length enzyme was produced in-house by expression (with an N-terminal 6× His tag) in E. coli and purification by affinity chromatography on a Ni-NTA Sepharose column followed by a size exclusion chromatography step on a Superdex 200 16/60 column (GE Healthcare).
In a typical assay 11 different concentrations of each compound (0.1 nM, 0.33 nM, 1.1 nM, 3.8 nM, 13 nM, 44 nM, 0.15 μM, 0.51 μM, 1.7 μM, 5.9 μM and 20 μM) were tested in duplicate within the same microtiter plate. To this end, 100-fold concentrated compound solutions (in DMSO) were previously prepared by serial dilution (1:3.4) of 2 mM stocks in a clear low volume 384-well source microliter plate (Greiner Bio-One), from which 50 nl of compound solutions were transferred into a white low volume test microtiter plate from the same supplier. Subsequently, 2.5 μl SMYD2 in aqueous assay buffer [50 mM Tris/HCl pH 9.0 (AppliChem), 1 mM dithiothreitol (DTT, Sigma), 0.01% (w/v) bovine serum albumine (BSA, Sigma), 0.0022% (v/v) Pluronic (Sigma)] were added to the compounds in the test plate to a final enzyme concentration of —typically—3 nM (this parameter was adjusted depending on the activity of the enzyme lot in order to be within the linear dynamic range of the assay). The samples were then incubated for 15 min at 22° C. to allow pre-equilibration of the putative enzyme-inhibitor complexes before the start of the methylation reaction, which was initiated by the addition of 2.5 μl 2-fold concentrated solution (in assay buffer) of titriated S-Adenosyl-L-Methionine (3H-SAM, Perkin Elmer, final concentration: 60 nM) and p53 Peptide substrate (final concentration: 1.0 μM). The resulting mixture (5 μl final volume) was shortly centrifuged (2 min., 1500 rpm) and incubated at 22° C. during 30 min. Thereupon the reaction was stopped by adding 3 μl of Streptavidin PS SPA imaging beads (Perkin Elmer, final concentration of 3.12 μg/μl) and “cold” SAM (AK Scientific, 25 μM final concentration) for non-specific binding reduction. Plates containing the stopped reaction were sealed with transparent adhesive foil (Perkin Elmer), centrifuged (2 min., 1500 rpm), and further incubated for —at least—1 h at RT (or overnight at 4° C.) in order to allow the SPA signals to develop. Subsequently, the amount of product was evaluated by measuring the energy transfer from the β-particles emitted by the 3H-labeled substrate to the Europium scintillator co-polymerized in the polystyrene matrix of the PS imaging beads, using the standard settings for this purpose of a Viewlux (Perkin-Elmer) CCD plate imaging device (emission filter 613/55 (IFP). The resulting scintillation counts were taken as indicator for the amount of methylated peptide per well. The data were normalised using two sets of control wells (typically 16 each) for high−(=enzyme reaction with DMSO instead of test compound=0% =Minimum inhibition) and low−(=all assay components without enzyme=100% =Maximum inhibition) SMYD2 activity. IC50 values were calculated by fitting the normalized inhibition data to a 4-parameter logistic equation using the “Screener” analysis software from Genedata.
(Scintillation proximity formats need no separation of bound from free tracer.)
SMYD2, sequence (Q9NRG4 whole entry): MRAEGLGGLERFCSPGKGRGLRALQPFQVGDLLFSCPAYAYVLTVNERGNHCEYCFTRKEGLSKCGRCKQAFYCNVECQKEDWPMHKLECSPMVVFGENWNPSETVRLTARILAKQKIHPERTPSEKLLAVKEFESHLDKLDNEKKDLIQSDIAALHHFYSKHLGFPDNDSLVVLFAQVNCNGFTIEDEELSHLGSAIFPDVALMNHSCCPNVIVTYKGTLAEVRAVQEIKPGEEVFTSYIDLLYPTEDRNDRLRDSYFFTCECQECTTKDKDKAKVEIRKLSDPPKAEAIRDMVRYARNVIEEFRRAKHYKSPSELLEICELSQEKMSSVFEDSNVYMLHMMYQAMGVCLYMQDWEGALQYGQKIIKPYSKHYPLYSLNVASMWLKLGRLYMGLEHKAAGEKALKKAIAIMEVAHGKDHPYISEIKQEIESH
Turning to `CCN(C(=O)[C@H]1CCCN1)C1CN(/C(=N\C#N)Nc2ccc(F)c(OC)c2)N=C1c1ccc(Cl)c(Cl)c1` (mixture of isomers) [Example 33, N-{1-[N′-Cyano-N-(4-fluoro-3-methoxyphenyl)carbamimidoyl]-3-(3,4-dichlorophenyl)-4,5-dihydro-1H-pyrazol-4-yl}-N-ethyl-D-prolinamide], the IC50 is 103 nM.

On to `CCN(C(=O)[C@H]1CCCN1)C1CN(/C(=N\C#N)Nc2cc(OC)ccc2C)N=C1c1ccc(Cl)c(Cl)c1` (mixture of isomers) [Example 34, N-{1-[N′-Cyano-N-(5-methoxy-2-methylphenyl)carbamimidoyl]-3-(3,4-dichlorophenyl)-4,5-dihydro-1H-pyrazol-4-yl}-N-ethyl-D-prolinamide], for which the IC50 was 615 nM. Regarding `CCN(C(=O)[C@H]1CCCN1)C1CN(/C(=N\C#N)Nc2cccc(OCC(F)(F)F)c2)N=C1c1ccc(Cl)c(Cl)c1` (mixture of isomers) [Example 35, N-[1-{N′-Cyano-N-[3-(2,2,2-trifluorelethoxy)phenyl]carbamimidayl}-3-(3,4-dichlorophenyl)-4,5-dihydro-1H-pyrazol-4-yl]-N-ethyl-D-prolinamide], the IC50 was 505 nM. To `CCN(C(=O)[C@H]1CCCN1)C1CN(/C(=N\C#N)Nc2cccc(OC(F)F)c2)N=C1c1ccc(Cl)c(C)c1` (mixture of isomers) [Example 37, N-[3-(4-Chloro-3-methylphenyl)-1-{N′-cyano-N-[3-(difluoromethoxy)phenyl]carbamimidoyl}-4,5-dihydro-1H-pyrazol-4-yl]-N-ethyl-D-prolinamide] belongs 18.7 nM.

Consider `CCN(C(=O)[C@@H]1CCCC[C@@H]1N)C1CN(/C(=N\C#N)Nc2cccc(OC(F)F)c2)N=C1c1ccc(Cl)c(Cl)c1` (mixture of isomers) [Example 43, (1R,2S)-2-amino-N-[1-{N′-cyano-N-[3-(difluoromethoxy)phenyl]carbamimidoyl}-3-(3,4-dichlorophenyl)-4,5-dihydro-1H-pyrazol-4-yl]-N-ethylcyclohexanecarboxamide], for which the IC50 was determined as 432 nM. To `CCN(C(=O)[C@@H]1CCC[C@@H]1N)C1CN(/C(=N\C#N)Nc2cc(OC)cc(C(F)(F)F)c2)N=C1c1ccc(Cl)c(Cl)c1` (mixture of isomers) [Example 45, (1R,2S)-2-Amino-N-[1-{N′-cyano-N-[3-methoxy-5-(trifluoromethyl)phenyl]carbamimidoyl}-3-(3,4-dichlorophenyl)-4,5-dihydro-1H-pyrazol-4-yl]-N-ethylcyclopentanecarboxamide] belongs 239 nM; to `N#C/N=C(/Nc1cccc(OC(F)F)c1)N1CC(NC(=O)C(N)(C2CC2)C2CC2)C(c2ccc(Cl)c(Cl)c2)=N1` (racemic) [Example 8, rac-2-Amino-N-[1-{N′-cyano-N-[3-(difluoromethoxy)phenyl]carbamimidoyl}-3-(3,4-dichlorophenyl)-4,5-dihydro-1H-pyrazol-4-yl]-2,2-dicyclopropylacetamide], 513 nM.

For the compound `N#C/N=C(/Nc1cccc(OC(F)F)c1)N1CC(NC(=O)C2(N)CCC2)C(c2ccc(Cl)c(Cl)c2)=N1` (racemic) [Example 9, rac-1-Amino-N-[1-{N′-cyano-N-[3-(difluoromethoxy)phenyl]carbamimidoyl}-3-(3,4-dichlorophenyl)-4,5-dihydro-1H-pyrazol-4-yl]cyclobutanecarboxamide], the IC50 came out at 603 nM.

As for `N#C/N=C(/Nc1cccc(OC(F)F)c1)N1CC(NC(=O)C2(N)CCCC2)C(c2ccc(Cl)c(Cl)c2)=N1` (racemic) [Example 10, rac-1-Amino-N-[1-{N′-cyano-N-[3-(difluoromethoxy)phenyl]carbamimidoyl}-3-(3,4-dichlorophenyl)-4,5-dihydro-1H-pyrazol-4-yl]cyclopentanecarboxamide], the IC50 turned out to be 748 nM. To `N#C/N=C(/Nc1cccc(OC(F)F)c1)N1CC(NC(=O)C2(N)CCCCC2)C(c2ccc(Cl)c(Cl)c2)=N1` (racemic) [Example 11, rac-1-Amino-N-[1-{N′-cyano-N-[3-(difluoromethoxy)phenyl]carbamimidoyl}-3-(3,4-dichlorophenyl)-4,5-dihydro-1H-pyrazol-4-yl]cyclohexanecarboxamide] belongs 1330 nM. Turning to `CCN(C(=O)[C@H]1C[C@@H](F)CN1)C1CN(/C(=N\C#N)Nc2cc(F)cc(OC(F)(F)F)c2)N=C1c1ccc(Cl)c(Cl)c1` (mixture of isomers) [Example 25, (4R)-N-[1-{N′-Cyano-N-[3-fluoro-5-(trifluoromethoxy)phenyl]carbamimidayl}-3-(3,4-dichlorophenyl)-4,5-dihydro-1H-pyrazol-4-yl]-N-ethyl-4-fluoro-D-prolinamide], the IC50 was found to be 519 nM. The same measure for `CCN(C(=O)[C@@H]1CCC[C@@H]1N)C1CN(/C(=N\C#N)Nc2cccc(OC(F)F)c2)N=C1c1ccc(Cl)c(Cl)c1` (relative stereo) [Example 42, Rel-(1R,2S)-2-amino-N-[1-{N′-cyano-N-[3-(difluoromethoxy)phenyl]carbamimidoyl}-3-(3,4-dichlorophenyl)-4,5-dihydro-1H-pyrazol-4-yl]-N-ethylcyclopentanecarboxamide]: 194 nM; for `CCN(C(=O)[C@H]1CCCN1)C1CN(/C(=N\C#N)Nc2cccc(OC(F)F)c2)N=C1c1ccc(Cl)c(Cl)c1` (single isomer, unassigned) [Example 1.2, N-[1-{N′-Cyano-N-[3-(difluoromethoxy)phenyl]carbamimidoyl}-3-(3,4-dichlorphenyl)-4,5-dihydro-1H-pyrazol-4-yl]-N-ethyl-D-prolinamide]: 362 nM. The same measure for `CCN(C(=O)[C@H]1C[C@@H](O)CN1)C1CN(/C(=N\C#N)Nc2cccc(OC(F)F)c2)N=C1c1ccc(Cl)c(Cl)c1` (single isomer, unassigned) [Example 3.2]: 2240 nM; for `CCN(C(=O)[C@H]1C[C@@H](F)CN1)C1CN(/C(=N\C#N)Nc2cccc(OC(F)F)c2)N=C1c1ccc(Cl)c(Cl)c1` (single isomer, unassigned) [Example 4.1]: 39.9 nM; for `CCN(C(=O)[C@H]1C[C@@H](F)CN1)C1CN(/C(=N\C#N)Nc2cccc(OC(F)F)c2)N=C1c1ccc(Cl)c(Cl)c1` (single isomer, unassigned) [Example 4.2]: 663 nM. To `CCN(C(=O)c1cccc(=O)[nH]1)C1CN(/C(=N\C#N)Nc2cccc(OC(F)F)c2)N=C1c1ccc(Cl)c(Cl)c1` (single isomer, unassigned) [Example 5.1, N-[1-{N′-Cyrano-N-[3-(difluoromethoxy)phenyl]carbamimidoyl}-3-(3,4-dichlorophenyl)-4,5-dihydro-1H-pyrazol-1-yl]-N-ethyl-6-oxo-1,6-dihydropyridine-2-carboxamide] belongs 576 nM; to `CCN(C(=O)c1cccc(=O)[nH]1)C1CN(/C(=N\C#N)Nc2cccc(OC(F)F)c2)N=C1c1ccc(Cl)c(Cl)c1` (single isomer, unassigned) [Example 5.2, N-[1-{N′-Cyano-N-[3-(difluoromethoxy)phenyl]carbamimidoyl}-3-(3,4-dichlorophenyl)-4,5-dihydro-1H-pyrazol-4-yl]-N-ethyl-6-oxo-1,6-dihydropyridine-2-carboxamide], above 20000 nM. As to `C[C@]1(C(=O)NC2CN(/C(=N\C#N)Nc3cccc(OC(F)F)c3)N=C2c2ccc(Cl)c(Cl)c2)CCCN1` (single isomer, unassigned) [Example 6.1, N-[1-{N′-Cyano-N-[3-(difluoromethoxy)phenyl]carbamimidoyl}-3-(3,4-dichlorophenyl)-4,5-dihydro-1H-pyrazol-1-yl]-2-methyl-D-prolinamide], the IC50 turned out to be 12 nM.

For the origin of these results see patent publication US20180099937A1, “NOVEL ARYL-CYANOGUANIDINE COMPOUNDS” (Bayer Pharma Aktiengesellschaft, priority 2015, published 2018).
